Read-outs that look alike come from different tables or passages of the source.
Key:
P2X7 [1] = biological target: T1, P2X7 (Homo sapiens (Human), UniProt Q99572); test: P2X7 antagonism in human whole blood, IL-1β release (LPS + Bz-ATP, ELISA); type: cell-based; details: LPS 30 ng/ml + Bz-ATP 1 mM
Protocol: (§1) P2X7 Antagonism in Human Peripheral Blood Mononuclear Cells (PBMCs) and Human Whole Blood.
(§2) Human blood was collected using a blood donor program. PBMCs were isolated from blood using a Ficoll density gradient technique. Briefly, blood was laid on Ficoll solution and centrifuged at ROOM TEMPERATURE for 20 minutes at 2000 rpm. The buffy layer (between red blood cells and plasma) was carefully collected by aspiration, washed with PBS and centrifuged again at 1500 rpm for 15 minutes. The resulting cell pellet was washed and plated on 96 well-plates for experiments. For the Human Whole Blood experiments, 150 μl of human blood was plated on 96 well-plates. Lipopolysaccharide (LPS) (30 ng/ml) was added to each well and incubated for 1 hour. Test compounds were then added and incubated for 30 minutes. The P2X7 agonist, 2′(3′)-O-(4-benzoylbenzoyl) adenosine 5′-triphosphate (Bz-ATP) was then added at a final concentration of 0.5 mM (PBMC) or 1 mM (blood). Cells were incubated for an additional 1.5 hours. At that point, supernatant was collected and stored for IL-1β assay using manufacturer's protocol for enzyme-linked immunosorbant assay (ELISA). Data was expressed as percent control, where control is defined as the difference in IL-1β release in LPS+Bz-ATP samples and LPS only samples. Data was plotted as response (% control) versus concentration to generate IC50 values. […] Data are analyzed and graphed on Graphpad Prism 5. For analysis, each concentration point is averaged from triplicate values and the averaged values are plotted on Graphpad Prism. The IC50 for each compound is then uploaded into 3DX.

P2X7 [2] = biological target: T1, P2X7; test: P2X7 antagonism in human peripheral blood mononuclear cells (PBMCs), IL-1β release (LPS + Bz-ATP, ELISA); type: cell-based; details: P2X7, 10 μM test compound, LPS 30 ng/ml + Bz-ATP 0.5 mM, read-out: PBMC @10 μM (% control)
Protocol: as §1, §2

rat P2X7 = rat P2X7 (Rattus norvegicus (Rat), UniProt Q64663); test: P2X7 antagonism in recombinant rat P2X7 cells (column headed P2X7 Rat IC50); type: binding
Sequence of rat P2X7 (Q64663 whole entry): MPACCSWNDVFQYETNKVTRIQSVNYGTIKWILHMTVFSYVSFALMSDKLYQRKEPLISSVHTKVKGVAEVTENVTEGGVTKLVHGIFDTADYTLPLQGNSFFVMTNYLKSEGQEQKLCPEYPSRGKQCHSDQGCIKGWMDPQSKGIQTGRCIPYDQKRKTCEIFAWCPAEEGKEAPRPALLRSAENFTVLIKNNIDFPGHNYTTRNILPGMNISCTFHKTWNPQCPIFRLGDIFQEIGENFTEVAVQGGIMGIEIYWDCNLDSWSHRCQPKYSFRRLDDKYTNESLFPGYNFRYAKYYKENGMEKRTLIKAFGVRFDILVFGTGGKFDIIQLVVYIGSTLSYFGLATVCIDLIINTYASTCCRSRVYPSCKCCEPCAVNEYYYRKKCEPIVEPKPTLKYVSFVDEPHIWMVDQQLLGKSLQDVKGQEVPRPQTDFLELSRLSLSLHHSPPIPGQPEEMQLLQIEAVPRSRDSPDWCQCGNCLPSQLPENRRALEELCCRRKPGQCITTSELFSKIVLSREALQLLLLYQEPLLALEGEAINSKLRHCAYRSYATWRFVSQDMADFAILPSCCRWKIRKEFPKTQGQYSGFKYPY
Protocol: The in vitro affinity of the compounds of the invention for the rat and human P2X7 receptor was determined using a human peripheral blood mononuclear cells (PBMCs), a human whole blood assay, a Ca^2+ flux and radioligand binding assay in recombinant human P2X7 cells and recombinant rat P2X7 cells. […] The data represented in Tables 2 may represent a value from a single determination or when the experiment was run more than once, the data represents the average from between 2-12 runs.
P2X7 Antagonism in Recombinant Human P2X7 Cells or Recombinant Rat P2X7 Cells: […]

P2X7 [3] = biological target: T1, P2X7; test: Radioligand binding ([3H]A-804598) to membranes of human P2X7-1321N1 cells; details: human P2X7-1321N1 membranes, tracer tritiated A-804598, 1 hour at 4° C.
Protocol: P2X7 Antagonism in Recombinant Human P2X7 Cells or Recombinant Rat P2X7 Cells:
human or rat P2X7-1321N1 cells were collected and frozen @ −80° C. On the day of the experiment, cell membrane preparations were made according to standard published methods. […] The compound can be prepared as described in the literature. […] The assay was terminated by filtration (GF/B filters pre-soaked with 0.3% PEI) and washed with washing buffer (Tris-HCl 50 mM). The IC50 generated in the binding assay was corrected for tracer concentration and affinity of the tracer to derive at the affinity (Ki) of the test compounds. The data are presented in Table 2 under the headings: P2X7 human Ki (μM) and P2X7 rat Ki (μM). Data are analyzed and graphed on Graphpad Prism 5. For analysis, each concentration point is averaged from triplicate values and the averaged values are plotted on Graphpad Prism.

[4] = read-out: Human Whole Blood IC50

T1 sequence (Q99572 whole entry): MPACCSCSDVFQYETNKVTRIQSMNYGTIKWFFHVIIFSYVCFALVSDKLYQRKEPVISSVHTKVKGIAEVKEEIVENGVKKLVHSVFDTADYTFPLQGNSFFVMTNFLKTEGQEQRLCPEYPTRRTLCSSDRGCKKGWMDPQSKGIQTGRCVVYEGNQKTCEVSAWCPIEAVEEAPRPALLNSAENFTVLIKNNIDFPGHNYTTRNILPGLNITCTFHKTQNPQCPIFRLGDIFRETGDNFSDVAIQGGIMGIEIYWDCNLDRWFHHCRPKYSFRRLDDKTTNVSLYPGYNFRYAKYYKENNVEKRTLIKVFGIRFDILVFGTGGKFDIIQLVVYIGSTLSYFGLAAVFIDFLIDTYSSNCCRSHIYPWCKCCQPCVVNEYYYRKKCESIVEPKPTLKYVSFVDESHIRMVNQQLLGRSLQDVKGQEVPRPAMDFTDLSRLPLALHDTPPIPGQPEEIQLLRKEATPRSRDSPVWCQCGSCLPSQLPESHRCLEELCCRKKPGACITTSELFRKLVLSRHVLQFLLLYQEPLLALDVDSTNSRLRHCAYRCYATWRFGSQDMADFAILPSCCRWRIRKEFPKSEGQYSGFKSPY

In the case of Cc1nc(-c2ccn[nH]2)c2c(n1)[C@H]1CCC[C@@H](C2)N1C(=O)c1cccc(C(F)(F)F)c1C [Example 21, (2-methyl-3-(trifluoromethyl)phenyl)((6S,10R)-2-methyl-4-(1H-pyrazol-5-yl)-5,6,7,8,9,10-hexahydro-6,10-epiminocycloocta[d]pyrimidin-11-yl)methanone], the IC50 (P2X7 [1]; Human Whole Blood IC50 (μM)) is reported as 0.026 µM, the remaining activity at 10 µM (P2X7 [2]) is reported as -26.4% and the IC50 (rat P2X7) is reported as 33.2 nM. For the same compound, the Ki (P2X7 [3]) was 31.6 nM.

Cc1nc(-c2ccn[nH]2)c2c(n1)[C@H]1CCC[C@@H](C2)N1C(=O)c1ccc(F)cc1Cl [Example 22, (2-chloro-4-fluorophenyl)((6S,10R)-2-methyl-4-(1H-pyrazol-5-yl)-5,6,7,8,9,10-hexahydro-6,10-epiminocycloocta[d]pyrimidin-11-yl)methanone] gave an IC50 (P2X7 [1]; [4]) of 0.286 µM, a remaining activity at 10 µM (P2X7 [2]) of 26.8% and an IC50 (rat P2X7) greater than 10000 nM. For the same compound, the Ki (P2X7 [3]) was 316 nM.

Cc1nc(-c2ccn[nH]2)c2c(n1)[C@H]1CCC[C@@H](C2)N1C(=O)c1ccnc(C(F)(F)F)c1Cl [Example 24, (3-chloro-2-(trifluoromethyl)pyridin-4-yl)((6S,10R)-2-methyl-4-(1H-pyrazol-5-yl)-5,6,7,8,9,10-hexahydro-6,10-epiminocycloocta[d]pyrimidin-11-yl)methanone] showed an IC50 (P2X7 [1]; Human Whole Blood IC50 (μM)) of 0.038 µM, a remaining activity at 10 µM (P2X7 [2]) of 2.4% and an IC50 (rat P2X7) of 19.2 nM. The Ki (P2X7 [3]) was 126 nM.

Cc1nc(-c2ccn[nH]2)c2c(n1)[C@H]1CCC[C@@H](C2)N1C(=O)c1ccc(F)c(Cl)c1Cl [Example 25, (2,3-dichloro-4-fluorophenyl)((6S,10R)-2-methyl-4-(1H-pyrazol-5-yl)-5,6,7,8,9,10-hexahydro-6,10-epiminocycloocta[d]pyrimidin-11-yl)methanone] showed an IC50 (P2X7 [1]; Human Whole Blood IC50 (μM)) of 0.025 µM, a remaining activity at 10 µM (P2X7 [2]) of -10.2% and an IC50 (rat P2X7) of 18.7 nM. For the same compound, the Ki (P2X7 [3]) was 20 nM.

With Cc1nc(-c2ccn[nH]2)c2c(n1)[C@H]1CCC[C@@H](C2)N1C(=O)c1ccnc(C(F)(F)F)c1F [Example 27, (3-fluoro-2-(trifluoromethyl)pyridin-4-yl)((6S,10R)-2-methyl-4-(1H-pyrazol-5-yl)-5,6,7,8,9,10-hexahydro-6,10-epiminocycloocta[d]pyrimidin-11-yl)methanone] the IC50 (P2X7 [1]; [4]) was 0.172 µM, the remaining activity at 10 µM (P2X7 [2]) was -10.2% and the IC50 (rat P2X7) was 132 nM. It also gave a Ki (P2X7 [3]) of 151 nM.

Compound Cc1nc(-c2ccn[nH]2)c2c(n1)[C@H]1CCC[C@@H](C2)N1C(=O)c1ccc(Cl)cc1F [Example 28, (4-chloro-2-fluorophenyl)((6S,10R)-2-methyl-4-(1H-pyrazol-5-yl)-5,6,7,8,9,10-hexahydro-6,10-epiminocycloocta[d]pyrimidin-11-yl)methanone] has an IC50 (P2X7 [1]; [4]) of 0.423 µM, a remaining activity at 10 µM (P2X7 [2]) of -25.1% and an IC50 (rat P2X7) of 7940 nM. For the same compound, the Ki (P2X7 [3]) was 126 nM.

With Cc1nc(-c2ccn[nH]2)c2c(n1)[C@H]1CCC[C@@H](C2)N1C(=O)c1cccc(Cl)c1Cl [Example 29, (2,3-dichlorophenyl)((6S,10R)-2-methyl-4-(1H-pyrazol-5-yl)-5,6,7,8,9,10-hexahydro-6,10-epiminocycloocta[d]pyrimidin-11-yl)methanone] the IC50 (P2X7 [1]; Human Whole Blood IC50 (μM)) was 0.008 µM, the remaining activity at 10 µM (P2X7 [2]) was -22.9% and the IC50 (rat P2X7) was 206 nM. The Ki (P2X7 [3]) was 20 nM.

For Cc1nc(-c2ncccn2)c2c(n1)[C@H]1CCC[C@@H](C2)N1C(=O)c1cccc(C(F)(F)F)c1Cl [Example 41, (2-chloro-3-(trifluoromethyl)phenyl)((6S,10R)-2-methyl-4-(pyrimidin-2-yl)-5,6,7,8,9,10-hexahydro-6,10-epiminocycloocta[d]pyrimidin-11-yl)methanone], the IC50 (P2X7 [1]; Human Whole Blood IC50 (μM)) was 0.021 µM, the remaining activity at 10 µM (P2X7 [2]) was -5.6% and the IC50 (rat P2X7) was 15.8 nM. For the same compound, the Ki (P2X7 [3]) was 29.5 nM.

Cc1nc(-c2ncccn2)c2c(n1)[C@H]1CCC[C@@H](C2)N1C(=O)c1ccnc(C(F)(F)F)c1Cl [Example 42, (3-chloro-2-(trifluoromethyl)pyridin-4-yl)((6S,10R)-2-methyl-4-(pyrimidin-2-yl)-5,6,7,8,9,10-hexahydro-6,10-epiminocycloocta[d]pyrimidin-11-yl)methanone] gave an IC50 (P2X7 [1]; [4]) of 0.107 µM, a remaining activity at 10 µM (P2X7 [2]) of -16.1% and an IC50 (rat P2X7) of 157 nM. For the same compound, the Ki (P2X7 [3]) was 126 nM.

Cc1nc(-c2ncccn2)c2c(n1)[C@H]1CCC[C@@H](C2)N1C(=O)c1ccc(Cl)c(F)c1Cl [Example 44, (2,4-dichloro-3-fluorophenyl)((6S,10R)-2-methyl-4-(pyrimidin-2-yl)-5,6,7,8,9,10-hexahydro-6,10-epiminocycloocta[d]pyrimidin-11-yl)methanone] gave an IC50 (P2X7 [1]; [4]) of 0.156 µM, a remaining activity at 10 µM (P2X7 [2]) of -11.6% and an IC50 (rat P2X7) of 251 nM. The Ki (P2X7 [3]) was 50.1 nM.

Cc1nc(-c2ncccn2)c2c(n1)[C@H]1CCC[C@@H](C2)N1C(=O)c1cccc(Cl)c1Cl [Example 45, (2,3-dichlorophenyl)((6S,10R)-2-methyl-4-(pyrimidin-2-yl)-5,6,7,8,9,10-hexahydro-6,10-epiminocycloocta[d]pyrimidin-11-yl)methanone] showed an IC50 (P2X7 [1]; Human Whole Blood IC50 (μM)) of 0.064 µM, a remaining activity at 10 µM (P2X7 [2]) of -14.2% and an IC50 (rat P2X7) of 128 nM. The Ki (P2X7 [3]) was 25.1 nM.

Work on Cc1nc(-c2cnccn2)c2c(n1)[C@H]1CCC[C@@H](C2)N1C(=O)c1cccc(C(F)(F)F)c1Cl [Example 46, (2-chloro-3-(trifluoromethyl)phenyl)((6S,10R)-2-methyl-4-(pyrazin-2-yl)-5,6,7,8,9,10-hexahydro-6,10-epiminocycloocta[d]pyrimidin-11-yl)methanone] yielded an IC50 (P2X7 [1]; Human Whole Blood IC50 (μM)) of 0.088 µM, a remaining activity at 10 µM (P2X7 [2]) of -4.2% and an IC50 (rat P2X7) of 14.1 nM. The Ki (P2X7 [3]) was 31.6 nM.

For Cc1nc(-c2cnccn2)c2c(n1)[C@H]1CCC[C@@H](C2)N1C(=O)c1ccc(Cl)c(F)c1Cl [Example 47, (2,4-dichloro-3-fluorophenyl)((6S,10R)-2-methyl-4-(pyrazin-2-yl)-5,6,7,8,9,10-hexahydro-6,10-epiminocycloocta[d]pyrimidin-11-yl)methanone], the IC50 (P2X7 [1]; Human Whole Blood IC50 (μM)) was 0.04 µM, the remaining activity at 10 µM (P2X7 [2]) was -3.4% and the IC50 (rat P2X7) was 245 nM. For the same compound, the Ki (P2X7 [3]) was 39.8 nM.

Work on Cc1nc(-c2cnccn2)c2c(n1)[C@H]1CCC[C@@H](C2)N1C(=O)c1cccc(C(F)(F)F)c1C [Example 50, (2-methyl-3-(trifluoromethyl)phenyl)((6S,10R)-2-methyl-4-(pyrazin-2-yl)-5,6,7,8,9,10-hexahydro-6,10-epiminocycloocta[d]pyrimidin-11-yl)methanone] yielded an IC50 (P2X7 [1]; [4]) of 0.158 µM, a remaining activity at 10 µM (P2X7 [2]) of -2.2% and an IC50 (rat P2X7) of 67.8 nM. The Ki (P2X7 [3]) was 93.3 nM.

Cc1nc(-c2ccc(F)cc2)c2c(n1)[C@H]1CCC[C@@H](C2)N1C(=O)c1cccc(C(F)(F)F)c1Cl [Example 51, (2-chloro-3-(trifluoromethyl)phenyl)((6S,10R)-4-(4-fluorophenyl)-2-methyl-5,6,7,8,9,10-hexahydro-6,10-epiminocycloocta[d]pyrimidin-11-yl)methanone] showed an IC50 (P2X7 [1]; Human Whole Blood IC50 (μM)) of 0.043 µM, a remaining activity at 10 µM (P2X7 [2]) of -3% and an IC50 (rat P2X7) of 16.6 nM. It also gave a Ki (P2X7 [3]) of 44.7 nM.

Cc1nc(-c2ccc(F)cc2)c2c(n1)[C@H]1CCC[C@@H](C2)N1C(=O)c1cccc(C(F)(F)F)c1C [Example 53, ((6S,10R)-4-(4-fluorophenyl)-2-methyl-5,6,7,8,9,10-hexahydro-6,10-epiminocycloocta[d]pyrimidin-11-yl)(2-methyl-3-(trifluoromethyl)phenyl)methanone] showed an IC50 (P2X7 [1]; [4]) of 0.131 µM, a remaining activity at 10 µM (P2X7 [2]) of 0% and an IC50 (rat P2X7) of 191 nM. The Ki (P2X7 [3]) was 31.6 nM.

Cc1nc(-c2ccc(F)cc2)c2c(n1)[C@H]1CCC[C@@H](C2)N1C(=O)c1cccc(Cl)c1Cl [Example 55, (2,3-dichlorophenyl)((6S,10R)-4-(4-fluorophenyl)-2-methyl-5,6,7,8,9,10-hexahydro-6,10-epiminocycloocta[d]pyrimidin-11-yl)methanone] was tested, and the IC50 (P2X7 [1]; Human Whole Blood IC50 (μM)) was 0.037 µM, the remaining activity at 10 µM (P2X7 [2]) was -1.6% and the IC50 (rat P2X7) was 217 nM. The Ki (P2X7 [3]) was 105 nM.
